Test results as given in PubChem BioAssay (NCI).
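1) Cells in 96-well plates. 2) Compound, 48 h, 5 concentrations. 3) Linear interpolation between surrounding doses. 4) Unreached endpoint = highest concentration. TGI: total growth inhibition.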

How the values were obtained:
Experiment in all cases: inhibition of tumour cell growth, NCI panel, 48 h
[1] = system: BT-549 breast
[2] = system: NCI-H460 lung
[3] = system: NCI-H522 lung
[4] = system: ACHN renal
[5] = system: HCC-2998 colon
[6] = system: SNB-19 CNS
[7] = system: A498 renal
[8] = system: SF-295 CNS
[9] = system: HOP-62 NSCLC
[10] = system: SK-MEL-5 melanoma
[11] = system: HT29 colon
[12] = system: SN12C renal
[13] = system: U251 CNS
[14] = system: TK-10 renal
[15] = system: HS 578T breast
[16] = system: K-562 leukemia
[17] = system: HCT-116 colon
[18] = system: SW-620 colon
[19] = system: HCT-15 colon
[20] = system: OVCAR-8 ovarian
[21] = system: UO-31 renal
[22] = system: NCI-H226 lung
[23] = system: M14 melanoma
[24] = system: CCRF-CEM leukemia
[25] = system: EKVX NSCLC
[26] = system: HOP-92 NSCLC
[27] = system: NCI-H23 lung
[28] = system: MALME-3M melanoma
[29] = system: RPMI-8226 leukemia
[30] = system: DU-145 prostate
[31] = system: MOLT-4 leukemia
[32] = system: SR leukemia
[33] = system: PC-3 prostate
[34] = system: SNB-75 CNS
[35] = system: CAKI-1 renal
[36] = system: IGROV1 ovarian
[37] = system: LOX IMVI melanoma
[38] = system: NCI/ADR-RES ovarian
[39] = system: MDA-MB-435
[40] = system: MCF7 breast
[41] = system: KM12 colon
[42] = system: SF-539 CNS
[43] = system: MDA-MB-231 breast
[44] = system: SF-268 CNS
[45] = system: RXF 393 renal
[46] = system: A549 NSCLC
[47] = system: OVCAR-5 ovarian
[48] = system: SK-OV-3 ovarian
[49] = system: OVCAR-4 ovarian
[50] = system: 786-0 renal
[51] = system: SK-MEL-28 melanoma
[52] = system: UACC-62 melanoma
[53] = system: T-47D breast
[54] = system: SK-MEL-2 melanoma
[55] = system: HL-60(TB) leukemia
[56] = system: COLO 205 colon
[57] = system: UACC-257 melanoma
[58] = system: OVCAR-3 ovarian

C[C@H]1CC(=O)C[C@@H]2CC[C@@H]3[C@H](CC[C@]4(C)C(OC(=O)c5cccc6c(=O)c7ccccc7[nH]c56)CC[C@@H]34)[C@]21C (stereo not given in full)
TGI [1]: > 100 µM
TGI [2]: > 100 µM
TGI [3]: 72.8 µM
TGI [4]: > 100 µM
TGI [5]: > 100 µM
TGI [6]: > 100 µM
TGI [7]: > 100 µM
TGI [8]: > 100 µM
TGI [9]: > 100 µM
TGI [10]: 40.3 µM
TGI [11]: > 100 µM
TGI [12]: > 100 µM
TGI [13]: > 100 µM
TGI [14]: > 100 µM
TGI [15]: > 100 µM
TGI [16]: > 100 µM
TGI [17]: > 100 µM
TGI [18]: > 100 µM
TGI [19]: > 100 µM
TGI [20]: 75.9 µM
TGI [21]: 95.1 µM
TGI [22]: > 100 µM
TGI [23]: > 100 µM
TGI [24]: 73.2 µM
TGI [25]: > 100 µM
TGI [26]: 70.8 µM
TGI [27]: > 100 µM
TGI [28]: > 100 µM
TGI [29]: 55.6 µM
TGI [30]: > 100 µM
TGI [31]: 30.2 µM
TGI [32]: 21.6 µM
TGI [33]: > 100 µM
TGI [34]: 92.8 µM
TGI [35]: 86 µM
TGI [36]: > 100 µM
TGI [37]: > 100 µM
TGI [38]: 61 µM
TGI [39]: > 100 µM
TGI [40]: > 100 µM
TGI [41]: > 100 µM
TGI [42]: > 100 µM
TGI [43]: > 100 µM
TGI [44]: > 100 µM
TGI [45]: > 100 µM
TGI [46]: > 100 µM
TGI [47]: > 100 µM
TGI [48]: > 100 µM
TGI [49]: > 100 µM
TGI [50]: > 100 µM
TGI [51]: > 100 µM
TGI [52]: 88.3 µM
TGI [53]: > 100 µM
TGI [54]: > 100 µM
TGI [55]: 36.5 µM
TGI [56]: 62.9 µM
TGI [57]: > 100 µM
TGI [58]: > 100 µM

Cn1c2ccccc2n2c3ccccc3c3nnc(N)c-3c12
TGI [1]: 13.8 µM
TGI [2]: > 100 µM
TGI [3]: 26.2 µM
TGI [4]: > 100 µM
TGI [5]: > 100 µM
TGI [6]: 25.5 µM
TGI [7]: > 100 µM
TGI [8]: > 100 µM
TGI [9]: > 86.5 µM
TGI [10]: > 100 µM
TGI [11]: > 100 µM
TGI [12]: 10 µM
TGI [13]: 11.7 µM
TGI [14]: > 100 µM
TGI [15]: 10.8 µM
TGI [16]: > 100 µM
TGI [17]: > 100 µM
TGI [18]: > 100 µM
TGI [19]: > 100 µM
TGI [20]: > 100 µM
TGI [21]: > 100 µM
TGI [22]: > 100 µM
TGI [23]: > 100 µM
TGI [24]: > 100 µM
TGI [25]: > 100 µM
TGI [26]: > 100 µM
TGI [27]: > 100 µM
TGI [28]: 32.3 µM
TGI [29]: > 100 µM
TGI [30]: > 100 µM
TGI [31]: > 100 µM
TGI [32]: > 100 µM
TGI [33]: > 100 µM
TGI [34]: 11.8 µM
TGI [35]: > 100 µM
TGI [36]: > 100 µM
TGI [37]: > 100 µM
TGI [38]: > 100 µM
TGI [39]: > 100 µM
TGI [40]: > 74.7 µM
TGI [41]: > 100 µM
TGI [43]: > 100 µM
TGI [44]: 3.68 µM
TGI [45]: > 87.6 µM
TGI [46]: > 100 µM
TGI [47]: > 100 µM
TGI [48]: > 100 µM
TGI [49]: > 100 µM
TGI [50]: 49.8 µM
TGI [51]: > 100 µM
TGI [52]: > 100 µM
TGI [53]: 12.9 µM
TGI [54]: > 79.5 µM
TGI [55]: > 100 µM
TGI [56]: > 100 µM
TGI [57]: > 100 µM
TGI [58]: > 100 µM
